Source: the RepoRT retention time repository (doi:10.1021/ac300829f)

Assay: RP, Thermo Scientific Hypersil GOLD, 150 × 2.1 mm, 1.9 µm, 0.5 mL/min, estimated dead time 0.66 min; A: water + 0.1% formic acid, pH 3; B: acetonitrile + 0.1% formic acid, pH 3; gradient (min/%B) 0/0 2/0 13/100 15.5/100 19/0
Details: stereoisomer not certain

SMILES	LC retention time
C[n+]1cccc(C(=O)[O-])c1 [trigonelline]	0.9 min
OCc1ccccc1O [2-hydroxybenzyl alcohol]	5.8 min
Nc1ncnc2c1ncn2C1OC2COP(=O)(O)OC2C1O (centres undefined) [cyclic AMP]	1 min
CC12CCC(=O)C=C1CCC1C2CCC2(C)C(C(=O)CO)CCC12 (centres undefined) [deoxycorticosterone]	9.6 min
